# Data published in PMC8298264, “Function of cofactor Akirin2 in the regulation of gene expression in model human neutrophil-like HL60 cells” (Bioscience Reports, 2021).
# Tested on: AKR2
# Assay: not given
# Design: key: A: Very high confidence in the interaction; B: High confidence in the interaction; D: Moderate confidence in the interaction
# Conditions: AKR2-interacting proteins (IPs), physical interactome; ref https://doi.org/10.3390/vaccines8010077; cited from earlier work
# Description: Supplement BSR-2021-1120_supp1.zip/BSR-2021-1120_suppST4.xlsx, sheet "BPs related to AKR2-IPs" | column: Predicted Biological Score (PBS)
row,Substance,Predicted Biological Score (PBS)
1,RGPD3,A
2,RGPD5,A
3,RGPD8,A
4,WDYHV1,A

# Tested on: human HL60 cells
# Assay: SWATH-MS proteomics, differential protein representation, akirin2 KO vs WT HL60 cells
# Type: cell-based
# Conditions: KO vs WT HL60 cells; sheet "Under-represented in KO"
# Description: Total proteins were extracted from WT and akirin2 KO HL60 cells using the AllPrep DNA/RNA/Protein Mini Kit (Qiagen) and protein concentration was determined using the BCA Protein Assay with BSA (Sigma–Aldrich) as standard. Protein extracts (150 µg per sample, n=3 biological replicates) from each WT and KO cells were trypsin digested using the FASP Protein Digestion Kit (Expedeon Ltd., Abcam, Cambridge, U.K.) and sequencing grade trypsin (Promega, Madison, WI, U.S.A.) following manufacturer’s recommendations. The resulting peptides were finally desalted on to OMIX Pipette tips C18 (Agilent Technologies, Santa Clara, CA, U.S.A.), dried down and stored at −20 °C until mass spectrometry analysis. […] Three micrograms of each protein digest from the three biological replicates of WT and akirin2 KO HL60 cells were used for the generation of the reference spectral ion library as part of the SWATH-MS analysis.
# Peptides were eluted in a 120-min gradient from 5 to 30% solvent B in solvent A followed by 15-min gradient from 30 to 60% solvent B in solvent A (solvent A: 0.1% formic acid in water, solvent B: 0.1% formic acid in acetonitrile) and directly injected into the mass spectrometer for analysis. For IDA experiments, the mass spectrometer was set to scanning full spectra (350–1400 m/z) using 250 ms accumulation time per spectrum, followed by up to 50 MS/MS scans (100–1500 m/z). Candidate ions with a charge state between +2 and +5 counts per second above a minimum threshold of 100 were isolated for fragmentation. One MS/MS spectrum was collected for 100 ms, before adding those precursor ions to the exclusion list for 15 s (mass spectrometer operated by Analyst TF 1.6, AB Sciex). Dynamic background subtraction was turned off. MS/MS analyses were recorded in high-sensitivity mode with rolling collision energy on and a collision energy spread of 5. For SWATH quantitative analysis, six independent samples (three replicates from WT and akirin2 KO HL60 cells, 5 µg each) were subjected to the cyclic DIA of mass spectra using the SWATH variable windows calculator (V 1.0, AB Sciex) and the SWATH acquisition method editor (AB Sciex), similar to established methods. […] For these experiments, a 50-ms survey scan (350–1400 m/z) was acquired at the beginning of each cycle, and SWATH–MS/MS spectra were collected from 100–1500 m/z for 70 ms at high-sensitivity mode, resulting in a cycle time of 3.6 s. Collision energy for each window was determined according to the calculation for a charge +2 ion-centered upon the window with a collision energy spread of 15. To create a spectral library of all the detectable peptides in the samples, the IDA MS raw files were combined and subjected to database search in unison using ProteinPilot software v. 5.0.1 (AB Sciex) with the Paragon algorithm. […] The detected protein threshold was set at 0.05. An independent false discovery rate (FDR) analysis, using the target–decoy approach provided by Protein Pilot (AB Sciex; https://sciex.com/products/software/proteinpilot-software), was used to assess the quality of identifications. Positive identifications were considered when identified proteins reached 1% of global FDR. […] Global normalization was performed according to the Total Area Sums (TAS) of all detected proteins in the samples. […] Heatmaps were prepared using the Heatmapper (http://www.heatmapper.ca/expression/) with average linkage and Euclidean distance measurement method.
Substance,Fold Change,Log (Fold Change)
sp¦P31040¦SDHA_HUMAN,0.5299,-0.2758
sp¦P40937¦RFC5_HUMAN,0.4492,-0.3475
sp¦Q7Z6Z7¦HUWE1_HUMAN,0.5255,-0.2794
sp¦Q07812¦BAX_HUMAN,0.5501,-0.2596
sp¦Q14289¦FAK2_HUMAN,0.4591,-0.3381
sp¦Q92608¦DOCK2_HUMAN,0.4625,-0.3349
sp¦Q92616¦GCN1_HUMAN,0.4921,-0.3079

# Same assay, conditions: KO vs WT; akirin2 KO vs WT HL60 cells; sheet "Under-represented in KO"
Substance,Fold Change,Log (Fold Change)
sp¦Q8NE71¦ABCF1_HUMAN,0.6253,-0.2039
sp¦Q9BRF8¦CPPED_HUMAN,0.571,-0.2434
sp¦Q9Y4W6¦AFG32_HUMAN,0.6186,-0.2086
sp¦Q01650¦LAT1_HUMAN,0.603,-0.2197
sp¦Q14692¦BMS1_HUMAN,0.6053,-0.218

# Same assay, conditions: Over-represented in KO; KO vs WT HL60 cells
Substance,Fold Change,Log (Fold Change)
sp¦P31689¦DNJA1_HUMAN,1.309,0.117
sp¦P49137¦MAPK2_HUMAN,1.268,0.1031
sp¦Q9P287¦BCCIP_HUMAN,1.299,0.1134
sp¦Q9Y266¦NUDC_HUMAN,1.364,0.135
sp¦Q9Y490¦TLN1_HUMAN,1.355,0.1319
sp¦Q13283¦G3BP1_HUMAN,1.326,0.1226
sp¦Q15056¦IF4H_HUMAN,1.397,0.1451

# Same assay, conditions: SWATH-MS, akirin2 KO vs WT HL60 cells, under-represented in KO
Substance,Fold Change,Log (Fold Change)
sp¦P29350¦PTN6_HUMAN,0.7017,-0.1538
sp¦P36404¦ARL2_HUMAN,0.6935,-0.1589
sp¦P38646¦GRP75_HUMAN,0.7142,-0.1462
sp¦P54709¦AT1B3_HUMAN,0.7448,-0.128
sp¦P60953¦CDC42_HUMAN,0.7034,-0.1528
sp¦P61604¦CH10_HUMAN,0.7263,-0.1389
sp¦Q6P2Q9¦PRP8_HUMAN,0.7423,-0.1294
sp¦Q9H0U4¦RAB1B_HUMAN,0.704,-0.1524
sp¦Q9UNS2¦CSN3_HUMAN,0.6926,-0.1595
sp¦Q9Y5B9¦SP16H_HUMAN,0.7335,-0.1346
sp¦Q14165¦MLEC_HUMAN,0.7439,-0.1285

# Same assay, conditions: SWATH-MS, akirin2 KO vs WT HL60 cells; over-represented in KO
Substance,Fold Change,Log (Fold Change)
sp¦Q01469¦FABP5_HUMAN,1.478,0.1698
sp¦Q09666¦AHNK_HUMAN,1.42,0.1523

# Same assay, conditions: SWATH-MS, akirin2 KO vs WT HL60 cells; sheet "Under-represented in KO"
Substance,Fold Change,Log (Fold Change)
sp¦P28070¦PSB4_HUMAN,0.7608,-0.1188
sp¦P35250¦RFC2_HUMAN,0.7882,-0.1034
sp¦Q86UX7¦URP2_HUMAN,0.7476,-0.1263
sp¦Q02880¦TOP2B_HUMAN,0.7738,-0.1113

# Same assay, conditions: akirin2 KO vs WT HL60 cells; sheet "Over-represented in KO"
Substance,Fold Change,Log (Fold Change)
sp¦P46013¦KI67_HUMAN,1.204,0.08052
sp¦P55072¦TERA_HUMAN,1.115,0.04741

# Same assay, conditions: akirin2 KO vs WT HL60 cells; sheet "Under-represented in KO"
Substance,Fold Change,Log (Fold Change)
sp¦P35579¦MYH9_HUMAN,0.3518,-0.4538
sp¦P53007¦TXTP_HUMAN,0.3964,-0.4018
sp¦P55809¦SCOT1_HUMAN,0.6768,-0.1696
sp¦P56545¦CTBP2_HUMAN,0.655,-0.1838
sp¦P78527¦PRKDC_HUMAN,0.4323,-0.3642
sp¦P84077¦ARF1_HUMAN,0.682,-0.1662
sp¦Q5T4S7¦UBR4_HUMAN,0.241,-0.6179
sp¦Q8NF50¦DOCK8_HUMAN,0.4042,-0.3934
sp¦Q9NR31¦SAR1A_HUMAN,0.4316,-0.3649
sp¦Q96A72¦MGN2_HUMAN,0.6271,-0.2026
sp¦Q08945¦SSRP1_HUMAN,0.3484,-0.4579
sp¦Q14204¦DYHC1_HUMAN,0.6536,-0.1847
